Assay results as given in patent US9040524B2, “Antifungal 5,6-dihydro-4H-pyrrolo[1,2-a][1,4]-benzodiazepines and 6H-pyrrolo[1,2-a][1,4]benzodiazepines substituted with bicycle benzene derivatives” (JANSSEN PHARMACEUTICA NV, priority 2010, dated 2015).

Legend:
Microsporum canis = assay: Antifungal activity in vitro, resazurin growth inhibition screen: Microsporum canis; assay type: cell-based; conditions: Microsporum canis B68128; for IC50: read-out: Inf. B pIC50 (converted)
How it was run: (§1)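 Compounds were serially diluted 2- or 4-fold from DMSO stock with an intermediate water step, tested up to 64 μM final. Each well received 10^3 cfu of cryopreserved fungus in RPMI-MOPS medium. Resazurin served as the growth read-out, with drug-free culture as 100% growth and medium alone as 0%.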

[1] = test system: Trichophyton mentagrophytes; assay: Antifungal activity in vitro, resazurin growth inhibition screen: Trichophyton mentagrophytes; assay type: cell-based; conditions: Trichophyton mentagrophytes B70554; for IC50: read-out: Inf. G pIC50 (converted)
How it was run: as §1

Trichophyton rubrum = assay: Antifungal activity in vitro, resazurin growth inhibition screen: Trichophyton rubrum; assay type: cell-based; conditions: Trichophyton rubrum B68183; for IC50: read-out: Inf. C pIC50 (converted)
How it was run: as §1

Sporothrix schenkii = assay: Antifungal activity in vitro, resazurin growth inhibition screen: Sporothrix schenkii; assay type: cell-based; conditions: Sporothrix schenkii B62482; for IC50: read-out: Inf. A pIC50 (converted)
How it was run: as §1

Aspergillus fumigatus = assay: Antifungal activity in vitro, resazurin growth inhibition screen: Aspergillus fumigatus; assay type: cell-based; conditions: Aspergillus fumigatus B42928; for IC50: read-out: Inf. E pIC50 (converted)
How it was run: as §1

Candida parapsilosis = assay: Antifungal activity in vitro, resazurin growth inhibition screen: Candida parapsilosis; assay type: cell-based; conditions: Candida parapsilosis B66126; for IC50: Lodderomyces parapsilosis, read-out: Inf. D pIC50 (converted)
How it was run: as §1

Cryptococcus neoformans = assay: Antifungal activity in vitro, resazurin growth inhibition screen: Cryptococcus neoformans; assay type: cell-based; conditions: Cryptococcus neoformans B66663; for IC50: read-out: Inf. F pIC50 (converted)
How it was run: as §1

Scedosporium apiospermum = assay: Antifungal activity in vitro, resazurin growth inhibition screen: Scedosporium apiospermum; assay type: cell-based; conditions: Scedosporium apiospermum IHEM3817; for IC50: read-out: Inf. H pIC50 (converted)
Procedure: (§2) The standard susceptibility screen was performed in 96-well plates (U-bottom, Greiner Bio-One). Serial dilutions (2-fold or 4-fold) of 20 mM compound stock solutions were made in 100% DMSO, followed by an intermediate dilution step in water. These serial dilutions (10 μl) were then spotted onto test-plates that could be stored in the dark at 4° C. for a maximum period of 2 weeks. An adequate broad dose-range was included with 64 μM as the highest in-test concentration. […] The different fungal species/isolates (Table 3a) were cryopreserved and 1/1000 diluted in medium just prior to use. A standard inoculum of 200 μl containing 10^3 colony-forming unit (cfu) was then added to each well. A positive control (100% growth=fungal culture without antifungal) and a negative control (0% growth=RPMI-MOPS medium) were included on each plate.

Rhizopus oryzae = assay: Antifungal activity in vitro, resazurin growth inhibition screen: Rhizopus oryzae; assay type: cell-based; conditions: Rhizopus oryzae IHEM5223; for IC50: Rhizopus arrhizus, read-out: Inf. J pIC50 (converted)
Procedure: as §2

Rhizomucor miehei = assay: Antifungal activity in vitro, resazurin growth inhibition screen: Rhizomucor miehei; assay type: cell-based; conditions: Rhizomucor miehei IHEM13391; for IC50: read-out: Inf. K pIC50 (converted)
Procedure: as §2

Scedosporium prolificans = assay: Antifungal activity in vitro, resazurin growth inhibition screen: Scedosporium prolificans; assay type: cell-based; conditions: Scedosporium prolificans IHEM21157
Procedure: as §2

SMILES | IC50 (Microsporum canis) [µM] | IC50 [1] [µM] | IC50 (Trichophyton rubrum) [µM] | IC50 (Sporothrix schenkii) [µM] | IC50 (Aspergillus fumigatus) [µM] | IC50 (Candida parapsilosis) [µM] | IC50 (Cryptococcus neoformans) [µM] | melting point | further results
CN1C(=O)C(C)(C)c2cc(C3=NCc4c(Cl)cccc4-n4cccc43)ccc21 [Compound 1, 5-(7-chloro-6H-pyrrolo[1,2-a][1,4]benzodiazepin-4-yl)-1,3-dihydro-1,3,3-trimethyl-2H-indol-2-one] | 9.33 | 26.3 | 7.94 | > 64.6 | 2.24 | > 64.6 | 4.27 | 233.7 to 235.1 °C | –
Clc1ccc2c(c1Cl)CN=C(c1ccc3c(c1)CCC3)c1cccn1-2 [Compound 22, 7,8-dichloro-4-(2,3-dihydro-1H-inden-5-yl)-6H-pyrrolo[1,2-a][1,4]benzodiazepine] | 3.02 | – | 1 | > 32.4 | 14.1 | > 32.4 | 2.51 | 199.3 to 201.6 °C | –
Clc1ccc(Cl)c2c1CN=C(c1ccc3c(c1)CCC3)c1cccn1-2 [Compound 24, 7,10-dichloro-4-(2,3-dihydro-1H-inden-5-yl)-6H-pyrrolo[1,2-a][1,4]benzodiazepine] | 8.91 | 6.03 | 3.98 | > 32.4 | > 32.4 | > 32.4 | > 32.4 | 194 to 194.2 °C | –
Clc1cc(Cl)c2c(c1)CN=C(c1ccc3c(c1)CCC3)c1cccn1-2 [Compound 25, 8,10-dichloro-4-(2,3-dihydro-1H-inden-5-yl)-6H-pyrrolo[1,2-a][1,4]benzodiazepine] | 0.832 | 0.38 | 0.794 | 2 | 0.155 | > 64.6 | 1 | 178.5 to 180.2 °C | IC50 (Scedosporium apiospermum): > 64.6 µM; IC50 (Rhizopus oryzae): > 64.6 µM; IC50 (Rhizomucor miehei): 39.8 µM
Clc1cccc2c1-n1cccc1C(c1ccc3c(c1)CCCO3)=NC2 [Compound 43, 10-chloro-4-(3,4-dihydro-2H-1-benzopyran-6-yl)-6H-pyrrolo[1,2-a][1,4]benzo-diazepine] | 0.158 | 0.219 | 0.129 | 0.912 | 0.141 | 4.37 | 0.209 | 103.7 °C | –
O=C1CCc2ccc(C3=NCc4c(Cl)cccc4-n4cccc43)cc21 [Compound 55, 6-(7-chloro-6H-pyrrolo[1,2-a][1,4]benzodiazepin-4-yl)-2,3-dihydro-1H-inden-1-one] | 3.89 | 25.1 | 1.95 | > 64.6 | > 64.6 | > 64.6 | > 64.6 | 214 to 217 °C | –
O=C1CCCc2cc(C3=NCc4ccc(Cl)cc4-n4cccc43)ccc21 [Compound 60, 6-(9-chloro-6H-pyrrolo[1,2-a][1,4]benzodiazepin-4-yl)-3,4-dihydro-1 (2H)-naphthalenone] | > 64.6 | > 64.6 | > 64.6 | 30.2 | > 64.6 | 3.63 | 7.08 | > 280 °C | –
O=C1OCc2ccc(C3=NCc4c(Cl)cccc4-n4cccc43)cc21 [Compound 62, 6-(7-chloro-6H-pyrrolo[1,2-a][1,4]benzodiazepin-4-yl)-1(3H)-isobenzofuranone] | > 64.6 | > 64.6 | > 64.6 | > 64.6 | > 64.6 | > 64.6 | > 64.6 | 107.9 °C (dec.) | –
O=C1OCc2ccc(C3=NCc4c(Cl)cc(Cl)cc4-n4cccc43)cc21 [Compound 64, 6-(7,9-dichloro-6H-pyrrolo[1,2-a][1,4]benzodiazepin-4-yl)-1 (3H)-isobenzofuranone] | > 64.6 | > 64.6 | > 64.6 | > 64.6 | > 64.6 | > 64.6 | > 64.6 | 210.5 to 212 °C | –
Fc1cccc2c1CN=C(c1ccc3c(c1)CCC(F)(F)O3)c1cccn1-2 [Compound 70, 4-(2,2-difluoro-3,4-dihydro-2H-1-benzopyran-6-yl)-7-fluoro-6H-pyrrolo[1,2-a]-[1,4]benzodiazepine] | 64.6 | > 64.6 | > 64.6 | > 64.6 | > 64.6 | 0.759 | 0.955 | 158.9 to 159.3 °C | –
FC1(F)Oc2ccc(C3=NCc4cccc(Cl)c4-n4cccc43)cc2O1 [Compound 76, 10-chloro-4-(2,2-difluoro-1,3-benzodioxol-5-yl)-6H-pyrrolo[1,2-a][1,4]benzo-diazepine] | – | – | – | – | – | – | – | – | Inf. B pIC50 (Microsporum canis): 6.70; Inf. G pIC50 [1]: 6.38; Inf. C pIC50 (Trichophyton rubrum): 6.82; Inf. H pIC50 (Scedosporium apiospermum): 5.13; Inf. I pIC50 (Scedosporium prolificans): 5.04; Inf. A pIC50 (Sporothrix schenkii): 5.69; Inf. E pIC50 (Aspergillus fumigatus): 5.94; Inf. D pIC50 (Candida parapsilosis): 5.18; Inf. F pIC50 (Cryptococcus neoformans): 5.82; Inf. J pIC50 (Rhizopus oryzae): 4.57; Inf. K pIC50 (Rhizomucor miehei): 4.98
Fc1cccc2c1CN=C(c1ccc3c(c1)OC(F)(F)O3)c1cccn1-2 [Compound 77, 4-(2,2-difluoro-1,3-benzodioxol-5-yl)-7-fluoro-6H-pyrrolo[1,2-a][1,4]benzo-diazepine] | 0.135 | 0.115 | 0.0195 | 3.55 | 0.0562 | 3.39 | 5.37 | – | IC50 (Scedosporium apiospermum): 22.4 µM; IC50 (Scedosporium prolificans; Lomentospora prolificans, read-out: Inf. I pIC50 (converted)): 1.74 µM; IC50 (Rhizopus oryzae): 12 µM; IC50 (Rhizomucor miehei): > 64.6 µM
Fc1cc(F)c2c(c1)-n1cccc1C(c1ccc3c(c1)OC(F)(F)O3)=NC2 [Compound 78, 4-(2,2-difluoro-1,3-benzodioxol-5-yl)-7,9-difluoro-6H-pyrrolo[1,2-a][1,4]benzo-diazepine] | – | – | – | – | – | – | – | – | Inf. B pIC50 (Microsporum canis): 6.26; Inf. G pIC50 [1]: 6.24; Inf. C pIC50 (Trichophyton rubrum): 6.85; Inf. H pIC50 (Scedosporium apiospermum): 4.19; Inf. I pIC50 (Scedosporium prolificans): 5.98; Inf. A pIC50 (Sporothrix schenkii): 5.28; Inf. E pIC50 (Aspergillus fumigatus): 6.44; Inf. D pIC50 (Candida parapsilosis): 5.64; Inf. F pIC50 (Cryptococcus neoformans): <4.19; Inf. J pIC50 (Rhizopus oryzae): <4.19; Inf. K pIC50 (Rhizomucor miehei): <4.19
FC1(F)Oc2ccc(C3=NCc4c(Cl)cc(Cl)cc4-n4cccc43)cc2O1 [Compound 79, 7,9-dichloro-4-(2,2-difluoro-1,3-benzodioxol-5-yl)-6H-pyrrolo[1,2-a][1,4]benzo-diazepine] | – | – | – | – | – | – | – | – | Inf. B pIC50 (Microsporum canis): 6.28; Inf. G pIC50 [1]: 5.79; Inf. C pIC50 (Trichophyton rubrum): 6.29; Inf. H pIC50 (Scedosporium apiospermum): 5.72; Inf. I pIC50 (Scedosporium prolificans): 5.98; Inf. A pIC50 (Sporothrix schenkii): 4.90; Inf. E pIC50 (Aspergillus fumigatus): 5.71; Inf. D pIC50 (Candida parapsilosis): 5.62; Inf. F pIC50 (Cryptococcus neoformans): 5.60; Inf. J pIC50 (Rhizopus oryzae): <4.19; Inf. K pIC50 (Rhizomucor miehei): <4.19
CN1CCc2cc(C3=NCc4c(Cl)cccc4-n4cccc43)ccc21 [Compound 83, 7-chloro-4-(2,3-dihydro-1-methyl-1H-indol-5-yl)-6H-pyrrolo[1,2-a][1,4]benzo-diazepine] | – | – | – | – | – | – | – | – | Inf. B pIC50 (Microsporum canis): 5.66; Inf. G pIC50 [1]: 5.06; Inf. C pIC50 (Trichophyton rubrum): 5.71; Inf. H pIC50 (Scedosporium apiospermum): 4.76; Inf. I pIC50 (Scedosporium prolificans): 5.85; Inf. A pIC50 (Sporothrix schenkii): 5.14; Inf. E pIC50 (Aspergillus fumigatus): 5.89; Inf. D pIC50 (Candida parapsilosis): 5.28; Inf. F pIC50 (Cryptococcus neoformans): 5.57; Inf. J pIC50 (Rhizopus oryzae): <4.19; Inf. K pIC50 (Rhizomucor miehei): <4.19
